# Measured values taken from patent publication US20130267500A1, “5-HT2C RECEPTOR AGONISTS IN THE TREATMENT OF DISORDERS AMELIORATED BY REDUCTION OF NORE[…]” (Arena Pharmaceuticals, Inc., priority 2010, published 2013).
# Assays:
# [1] = 56-day placebo-controlled study of lorcaserin hydrochloride: body weight; assay type: in vivo, human; settings: for Bodyweight, Mean: lorcaserin hydrochloride 10 mg BID oral
# Protocol: (§1) A fifty-six-day, double-blind, randomized, placebo-controlled, parallel-group study was conducted to assess the effects of lorcaserin hydrochloride administration to overweight and obese male and female patients. The study was completed according to the guidelines of Good Clinical Practice and was conducted in full compliance with the World Medical Association Declaration of Helsinki and its most recent amendments.
# (§2) Fifty-seven overweight or obese adult male and female subjects aged 18 to 65 years inclusive were randomized to one of two treatment groups: placebo or lorcaserin hydrochloride (10 mg) twice-a-day (BID) for 56 days. The majority of subjects were female (68.4%) and Caucasian (63.2%). […] Patients were required to participate in the Arena Healthy Lifestyle Program®, designed specifically for this study, which included a 600 kcal deficit diet and 30 minutes of moderate exercise per day.
# (§3) Each subject underwent screening procedures within 28 days or sooner, prior to dosing on Day 1, over 3 screening visits (Days −28, −14, and −7). This was followed by an initial inpatient period of 4 days, a 3-day outpatient period, a second 4-day inpatient period, a second outpatient period over 45 days which included 7 visits, and a final 3-day inpatient period. Fifty-three subjects completed the study.
# (§4) Lorcaserin formulation is composed of white tablets containing lorcaserin (active) and excipients (silicified microcrystalline cellulose NF, hydroxypropyl cellulose NF, croscarmellose sodium NF, magnesium stearate NF and Opadry® II white). The placebo is composed of white tablets containing excipients.
# (§5) All enrolled patients received two oral doses per day (one dose in the morning prior to breakfast and one dose in the evening prior to dinner) of study medication (lorcaserin or placebo) for 56 days. Dosing was performed in a double-blind manner so that neither the patient nor the Investigator knew which treatment had been assigned. Patients were told to take the study medication each morning and evening approximately 60 minutes before breakfast and dinner and were encouraged to take the study medication with an adequate amount of water (8 oz or 240 mL). Patients were asked not to crush, break, chew, or dissolve the tablets.
# Patients were required to fast for 10 hours prior to each study visit that requires a blood sample for clinical laboratory tests. Participants were weighed (in duplicate) at each study visit wearing a hospital gown. Efforts were made to schedule study visits prior to 10:00 a.m. to capture the fasted body weight and to reduce the variability in body weight normally observed throughout the day. Weights were measured in kilograms (kg).
# The analyses of all efficacy variables used the Modified Intent-to-Treat Population (MITT) population. Patient data were analyzed according to the treatment assigned at randomization, regardless of the treatment received during the course of the trial. Inclusion was dependent on the presence of a baseline measurement, consumption of at least one study dose, and a post-randomization measurement. Patients were instructed to bring their unused study drug with them to each study visit. Compliance was assessed by the number of remaining tablets. Change from baseline or percent change from baseline is defined as the change from Day 1 (randomization) measurement. If the Day 1 measurement was not available, the last non-missing pre-randomization measurement was used as the baseline value, otherwise baseline was considered missing. […]
# [2] = system: norepinephrine; assay: 56-day placebo-controlled study: 24 h urine norepinephrine; assay type: in vivo, human; settings: 10 mg BID
# Protocol: as §1
# (§6) Fifty-seven overweight or obese adult male and female subjects aged 18 to 65 years inclusive were randomized to one of two treatment groups: placebo or lorcaserin hydrochloride (10 mg) twice-a-day (BID) for 56 days. The majority of subjects were female (68.4%) and Caucasian (63.2%). […]
# (§7) The analyses of all efficacy variables used the Modified Intent-to-Treat Population (MITT) population. Patient data were analyzed according to the treatment assigned at randomization, regardless of the treatment received during the course of the trial. […] Compliance was assessed by the number of remaining tablets. […]
# (§8) Mean concentrations and mean change from baseline in 24 h urine epinephrine and norepinephrine at Day 7 and Day 56 were assessed. […] Epinephrine was below the limit of quantitation in 44 of 55 available patient samples at Day 7 and 33 of 52 available samples at Day 56. […]
# [3] = system: epinephrine; assay: 56-day placebo-controlled study: 24 h urine epinephrine; assay type: in vivo, human; settings: after 7 or 56 days of treatment; small number of evaluable samples
# Protocol: as §1, §6, §7, §8
# [4] = 56-day placebo-controlled study: safety (adverse events, ECG, BDI-II); assay type: in vivo, human
# Protocol: as §1, §2, §3, §4, §5
# A 12-lead ECG was performed at screening (baseline), and during the exit visit (Day 57). […] Individual subjects experienced abnormalities at all time points including baseline. […] None of the abnormalities were clinically significant.
# Serial assessments of depression were performed during the study at Days −2, +6 and +55 (Beck Depression Inventory-II (BDI-II)).
# [5] = cited from earlier work
# [6] = target: T1, human 5-HT2C receptors (Homo sapiens, UniProt P28335); settings: cited from earlier work
# T1 sequence (P28335 33-458): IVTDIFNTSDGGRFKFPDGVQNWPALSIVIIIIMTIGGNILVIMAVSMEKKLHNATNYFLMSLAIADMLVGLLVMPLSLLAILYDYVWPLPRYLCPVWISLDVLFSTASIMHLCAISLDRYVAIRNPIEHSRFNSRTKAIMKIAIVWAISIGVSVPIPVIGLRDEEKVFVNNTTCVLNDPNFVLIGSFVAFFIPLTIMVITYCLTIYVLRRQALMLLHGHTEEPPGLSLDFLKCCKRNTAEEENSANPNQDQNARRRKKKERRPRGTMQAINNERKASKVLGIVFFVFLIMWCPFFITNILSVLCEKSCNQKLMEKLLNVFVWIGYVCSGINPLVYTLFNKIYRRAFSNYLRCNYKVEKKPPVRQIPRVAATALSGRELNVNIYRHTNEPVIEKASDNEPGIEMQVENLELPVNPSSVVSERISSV
# [7] = target: 5-HT2A receptors (Homo sapiens, UniProt P28223); settings: cited from earlier work
# [8] = target: 5-HT2B receptors (Homo sapiens, UniProt P41595); settings: cited from earlier work
# [9] = lorcaserin group, 10 mg BID, 56 days
# [10] = phase 3 program, up to two years
# Sequence of 5-HT2B receptors (P41595 whole entry): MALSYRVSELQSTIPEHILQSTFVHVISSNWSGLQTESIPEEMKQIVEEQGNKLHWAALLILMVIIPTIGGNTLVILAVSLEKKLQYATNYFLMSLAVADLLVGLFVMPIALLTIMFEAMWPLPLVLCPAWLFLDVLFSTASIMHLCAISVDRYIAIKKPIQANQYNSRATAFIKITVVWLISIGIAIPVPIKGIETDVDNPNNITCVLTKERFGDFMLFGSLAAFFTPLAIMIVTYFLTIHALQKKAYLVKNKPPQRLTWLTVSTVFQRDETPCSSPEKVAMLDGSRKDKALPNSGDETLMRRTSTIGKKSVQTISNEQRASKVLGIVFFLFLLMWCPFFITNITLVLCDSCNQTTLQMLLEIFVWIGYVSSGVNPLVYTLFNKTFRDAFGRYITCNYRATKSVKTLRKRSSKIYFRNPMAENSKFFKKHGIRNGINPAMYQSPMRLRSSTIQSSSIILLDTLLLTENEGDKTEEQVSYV
# Sequence of 5-HT2A receptors (P28223 whole entry): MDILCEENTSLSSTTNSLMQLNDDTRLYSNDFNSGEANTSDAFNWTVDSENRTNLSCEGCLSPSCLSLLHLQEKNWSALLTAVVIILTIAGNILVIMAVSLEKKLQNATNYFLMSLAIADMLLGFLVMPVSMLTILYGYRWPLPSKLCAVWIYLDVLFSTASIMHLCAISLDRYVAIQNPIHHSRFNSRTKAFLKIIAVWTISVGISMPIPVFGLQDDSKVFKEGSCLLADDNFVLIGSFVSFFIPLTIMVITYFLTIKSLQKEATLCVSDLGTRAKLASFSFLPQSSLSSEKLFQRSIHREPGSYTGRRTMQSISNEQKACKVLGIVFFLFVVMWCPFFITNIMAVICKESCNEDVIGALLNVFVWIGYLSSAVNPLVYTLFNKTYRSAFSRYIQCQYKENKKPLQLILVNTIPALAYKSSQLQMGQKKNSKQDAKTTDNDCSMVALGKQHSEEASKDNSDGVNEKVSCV
compound,measurement,setting,value
"C[C@H]1CNCCc2ccc(Cl)cc21 [Lorcaserin, (R)-8-Chloro-1-methyl-2,3,4,5-tetrahydro-1H-3-benzazepine]","Bodyweight, Mean","[1]; Day 1 (baseline), overweight/obese patients",96.59 kg
same,"Bodyweight, Mean",[1]; Day 6,96.67 kg
same,"Bodyweight, Mean",[1]; Day 55,93.84 kg
same,weight loss,"[1]; at 6 days, 10 mg BID",No significant weight loss
same,weight loss as compared to placebo,"[1]; at 55 days, 10 mg BID",Significantly greater weight loss
same,24 h norepinephrine excretion in urine,[2]; after 7 days (p<0.0001),significant decrease
same,24 h norepinephrine excretion in urine,[2]; after 56 days (p<0.001),significant decrease
same,24 h epinephrine excretion,[3],no change
same,deaths or serious adverse events,"[4]; 10 mg BID, 56 days",No deaths or serious adverse events occurred
same,early terminations due to AEs,"[4]; 10 mg BID, 56 days",no early terminations due to AEs
same,incidence of depression related adverse events,"[4]; 10 mg BID, 56 days",did not increase
same,tolerability,"[4]; 10 mg BID, 56 days",generally well tolerated
same,"Beck Depression Inventory-II (BDI-II), difference between lorcaserin and placebo groups","[4]; Days -2, +6 and +55",No meaningful differences
same,"Headache, subjects with at least 1 event","[4]; lorcaserin group (29 randomized), 10 mg BID, 56 days",11 subjects
same,"Dizziness, subjects reporting",[4]; [9],3 subjects
same,"Headache, rate of subjects with at least 1 event",[4]; [9],37.9%
same,12-lead ECG effects,[4]; screening vs exit visit (Day 57),no apparent treatment-related effects on ECG
same,excess body weight lost (normal BMI of 25),[5]; first phase 3 trial,about one-third
same,patients achieving at least 5% weight loss,[5]; [10],About two-thirds
same,patients achieving at least 10% weight loss,[5]; [10],over one-third
same,"average weight lost, of their weight",[5]; phase 3 program,about 8%
same,depression or suicidal ideation,[5]; phase 3 program,no signal
same,heart rate and blood pressure,[5]; phase 3 program,went down
same,risk of cardiac valvulopathy,[5]; phase 3 program,did not increase the risk
same,"average weight loss, top quartile of patients",[5]; second phase 3 trial,35 pounds
same,"average weight loss, top quartile of patients, of body weight",[5]; second phase 3 trial,16%
"CN(C)[C@@H]1Cc2ccccc2[C@@H](c2ccccc2)C1 [(1R,3S)-(−)-trans-1-phenyl-3-dimethylamino-1,2,3,4-tetrahydronaphthalene]",activity at human 5-HT2C receptors,[6],agonist
same,activity at 5-HT2A receptors,[7],antagonist
same,activity at 5-HT2B receptors,[8],antagonist
